From patent US5391489A, “Proteolytic enzymes from hyperthermophilic bacteria and processes for their production” (Johns Hopkins University, priority 1993, dated 1995) come the findings set out here.

Test [1] has as its system purified SDS-resistant proteolytic enzyme preparation. Nature of the test: Inhibitor studies on purified SDS-resistant proteolytic enzyme preparation. Type of test: biochemical, Pyrococcus furiosus. The settings on record: for inhibition: concentrations below 150 μM; for inhibition at point of complete saturation: reached at 400 μM. Here is the method:
FIG. 7. Effect of chelating inhibitors EDTA and EGTA on activity at 98° C. of purified SDS-resistant proteolytic enzyme preparation from Pyrococcus furiosus. Samples of purified enzyme preparation were assayed in the standard azocasein with the inhibitor concentrations indicated.
Determination of proteolytic activity was based on the cleavage of azocasein (Cowan, D. A., et al., 1987, Biochem, J. 247:121-133). Assay mixtures contained 900 μl of 0.1% azocasein in 0.05M sodium phosphate buffer (pH 7.3 at 100° C.), and 100 μl of sample. The reaction was terminated by the addition of 500 μl of 15% (w/v) trichloracetic acid, and the cooled on ice for 5 min. The precipitate formed was removed by centrifugation at 12,000×g for 3 min in a microcentrifuge. Color release as a result of proteolytic activity was detected by measuring the absorbance of the supernatant at 440 nm. […] A unit of activity is defined as the amount of protein which produces a change of 0.100 absorbance units at 440 nm for a 30 min. incubation at a given temperature. Total protein was measured using the BioRad assay kit.
(§1) Purified samples of the SDS-resistant protease were obtained by incubation of the cell-free extract for 24 hours in the presence of 1% SDS at 98° C. Extracts treated in this way were then dialyzed against 5 mM sodium phosphate buffer, pH 7.5 at 4° C. overnight and concentrated in a Pharmacia Omegacell Stirred Cell (nominal molecular weight limit of 10 kDa) to a concentration of 2-3 mg/ml protein measured by the Bio-Rad protein assay kit.

Test [2] has the same test system. Description: Effect of denaturing agents on activity of the purified protease (standard azocasein assay). It counts as biochemical, Pyrococcus furiosus. The following applies: for percentage of original activity: standard assay conditions; for loss of proteolytic activity: 1 molar, at 98° C. for at least 30 minutes. Here is the method:
Several denaturing agents were added to azocasein, both in the presence and absence of the protease, to control of possible degradation of the substrate in the presence of the agents. […] Thus, high concentrations of urea and guanidinium chloride led to significant abiotic hydrolysis of azocasein such that results were difficult to interpret. The increases in relative activity above 100% are likely the result of the denaturing agents acting to make the azocasein substrate more susceptible to enzymatic hydrolysis.
(§2) Determination of proteolytic activity was based on the cleavage of azocasein (Cowan, D. A., et al., 1987, Biochem, J. 247:121-133). Assay mixtures contained 900 μl of 0.1% azocasein in 0.05M sodium phosphate buffer (pH 7.3 at 100° C.), and 100 μl of sample. The reaction was terminated by the addition of 500 μl of 15% (w/v) trichloracetic acid, and the cooled on ice for 5 min. The precipitate formed was removed by centrifugation at 12,000×g for 3 min in a microcentrifuge. Color release as a result of proteolytic activity was detected by measuring the absorbance of the supernatant at 440 nm. Linear response of the assay was obtained between 0.010 and 0.100 absorbance units. A unit of activity is defined as the amount of protein which produces a change of 0.100 absorbance units at 440 nm for a 30 min. incubation at a given temperature. Total protein was measured using the BioRad assay kit.
as §1

Test [3] shares this test system. Nature of the test: Effects of solvents on purified SDS-resistant proteolytic enzyme preparation. It counts as biochemical, Pyrococcus furiosus. Here is the method:
as §2, §1

Another test has as its system angiotensin I. Nature of the test: Hydrolysis of peptide angiotensin I (reverse phase separation of products). Type of test: biochemical. The following applies: after two hours at 40° C. Here is the method: FIG. 8. Comparison of hydrolysis products of angiotensin I polypeptide by trypsin and purified SDS-resistant proteolytic enzyme preparation ("Pyrolysin") showing similarity of cleavage except for one additional cleavage by the novel enzyme preparation.
A chromatogram of the cleavage products of angiotensin I after exposure to the purified P. furiosus protease and to trypsin is shown in FIG. 8.
Hydrolysis of peptides was conducted with a modification of a procedure described by Cowan et al., 1987, Biochem. J. 247:121-133). The peptides serum thymic factor and angiotensin I were incubated with the protease from P. furiosus for fifteen and sixty minutes at 98° C., and two hours with trypsin at 40° C. End products were separated by reverse phase chromatography on a Waters high-performance liquid chromatography system using a WISP auto injector and μ-Bondapak C18 with a linear gradient of acetonitrile and water, with 0.1% trifluoroacetic acid in both phases. Peaks from the reverse phase column were dried down in a Savant Speed-Vac and analyzed by Waters Pico-Tag amino acid analysis.

A short description of test [4]: Hydrolysis of synthetic substrate benzoyl DL-arginine p-nitroanilide. The following applies: at 60° C. It counts as biochemical. Here is the method:
(§3) For tests on the substrate specificity of the purified SDS-resistant preparation, benzoyl-L-arginine ethyl ester, benzoyl-DL-arginine p-nitroanilide, serum thymic factor, angiotensin I, and trypsin were obtained from Sigma. Assays of benzoyl-L-arginine ethyl ester and benzoyl-arginine p-nitroanilide were performed as described previously (Schwert, G. W. et al., 1955, Biochem. Biophys. Acta 16:570-575; Erlanger, B. F., et al., 1961, Arch. Biochem. Biophys. 95:271-278) with a change in buffers to 50 mM sodium phosphate buffer, pH 7.5, and a substrate preincubation of two minutes at standard assay temperature.

Test [5] can be described thus: Hydrolysis of synthetic substrate benzoyl-L-arginine ethyl ester. Type of test: biochemical. The following applies: at 60° C. Here is the method: as §3

Like-named read-outs stand apart in the source and are kept apart here.

As to `O=C(O)c1cc[c]([Hg][Cl])cc1` [p-chloromercuribenzoate], the % inhibition (usually how much of the control response was suppressed) in test [1] (10 mM inhibitor) turned out to be 40%.
In the case of `O[C@H](CS)[C@H](O)CS` (racemic) [dithiothreitol], the “percentage of original activity” value in test [2] (10 mM) is recorded as 39.5%.
As for `O=C(O)CI` [iodoacetic acid], the “% inhibition” value in test [1] was determined as 0%.
For the molecule `OCCS` [β-mecaptoethanol], in test [2] (150 mM), the “percentage of original activity” value came to 57%.
With `N=C(N)N` [guanidinium chloride], the “percentage of original activity” value in test [2] (1M denaturant) is recorded as 256%; in test [2] (2M denaturant) it was 299%. For the same molecule, the “loss of proteolytic activity” value in test [2] was “no loss of proteolytic activity”.
For the molecule `O=C(O)CN(CCOCCOCCN(CC(=O)O)CC(=O)O)CC(=O)O` [EGTA, [Ethylenebis(oxyethylenenitrilo)]tetraacetic acid], the entries for the “% inhibition” value in test [1] (100 μM inhibitor), in test [1] (500 μM inhibitor) and in test [1] (10 mM inhibitor) were 7.8%, 51% and 49%, respectively. Also, the inhibition entry in test [1] is listed as “no inhibition”. Further, the “inhibition at point of complete saturation” value in test [1] was “about 50%”.
The matching figures for `O=C(O)CN(CCN(CC(=O)O)CC(=O)O)CC(=O)O` [EDTA]: 7.8%, 51%, 49%, “no inhibition” and “about 50%”.
Consider `CC#N` [Acetonitrile], for which the “% Activity” value in test [3] (20% (v/v) solvent) stood at 77%; in test [3] (50% (v/v) solvent) it was 71%; in test [3] (70% (v/v) solvent), 39%.
Consider `CN(C)C=O` [Dimethylformamide], for which the figures for the “% Activity” value in test [3] (10% (v/v) solvent), in test [3] (50% (v/v) solvent) and in test [3] (100% solvent) were 80%, 13% and 25%, respectively.
As for `NC(N)=O` [urea], the “loss of proteolytic activity” value in test [2] is given as “no loss of proteolytic activity”. Further, the “percentage of original activity” value is recorded as 124% in test [2] (2M denaturant) and 138% in test [2] (4M denaturant).
`O=S(=O)(F)Cc1ccccc1` [phenyl methylsulfonyl fluoride]: in test [1] (10 mM inhibitor), the “% inhibition” value was found to be 0%.

B1: trypsin (protein, UniProt P00760 24-246, looked up)
Serine protease 1: IVGGYTCGANTVPYQVSLNSGYHFCGGSLINSQWVVSAAHCYKSGIQVRLGEDNINVVEGNEQFISASKSIVHPSYNSNTLNNDIMLIKLKSAASLNSRVASISLPTSCASAGTQCLISGWGNTKSSGTSYPDVLKCLKAPILSDSSCKSAYPGQITSNMFCAGYLEGGKDSCQGDSGGPVVCSGKLQGIVSWGSGCAQKNKPGVYTKVCNYVSWIKQTIASN
notes: comparison protease obtained from Sigma
In the case of B1, the remaining uncleaved peptide entry with angiotensin I is listed as “still a portion of uncleaved angiotensin I”. Moreover, the hydrolysis of substrate result in test [4] and in test [5] was “effective” in each case.
